Source: the supplement of paper PMC10307832

Assays:
Assay in all cases: relative viability (nuclei count vs DMSO), 5 days (fraction); higher = more cells survive
KN-93 + AZD7762 = compound: CN(C/C=C/C1=CC=C(C=C1)Cl)CC2=CC=CC=C2N(CCO)S(=O)(=O)C3=CC=C(C=C3)OC [KN-93] + NC(=O)Nc1cc(-c2cccc(F)c2)sc1C(=O)N[C@H]1CCCNC1 [AZD7762] (partner 0.2 µM)
How it was run: (§1)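 Relative viability divides the nuclei count in treated wells by that in vehicle wells. Lung cancer cell lines were seeded in 1536-well plates, dosed by pin tool the next day, and fixed and stained after 5 days in one step with final 0.05% Triton X-100, 1% formaldehyde and 1 ug/ml Hoechst. Dosing was a single drug or a fixed anchor-drug dose plus five library-drug doses (not always all listed) in √10 steps, and values are medians of duplicate plates imaged at 4×.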

KN-93 + Dasatinib = compound: CN(C/C=C/C1=CC=C(C=C1)Cl)CC2=CC=CC=C2N(CCO)S(=O)(=O)C3=CC=C(C=C3)OC [KN-93] + Cc1nc(Nc2ncc(C(=O)Nc3c(C)cccc3Cl)s2)cc(N2CCN(CCO)CC2)n1 [Dasatinib] (partner 0.075 µM)
How it was run: as §1

KN-93 + Trametinib = compound: CN(C/C=C/C1=CC=C(C=C1)Cl)CC2=CC=CC=C2N(CCO)S(=O)(=O)C3=CC=C(C=C3)OC [KN-93] + CC(=O)Nc1cccc(-n2c(=O)n(C3CC3)c(=O)c3c(Nc4ccc(I)cc4F)n(C)c(=O)c(C)c32)c1 [Trametinib] (partner 0.02 µM)
How it was run: as §1

KN-93 + Palbociclib = compound: CN(C/C=C/C1=CC=C(C=C1)Cl)CC2=CC=CC=C2N(CCO)S(=O)(=O)C3=CC=C(C=C3)OC [KN-93] + CC(=O)c1c(C)c2cnc(Nc3ccc(N4CCNCC4)cn3)nc2n(C2CCCC2)c1=O [Palbociclib] (partner 0.5 µM)
How it was run: as §1

KN-93 + Tozasertib = compound: CN(C/C=C/C1=CC=C(C=C1)Cl)CC2=CC=CC=C2N(CCO)S(=O)(=O)C3=CC=C(C=C3)OC [KN-93] + Cc1cc(Nc2cc(N3CCN(C)CC3)nc(Sc3ccc(NC(=O)C4CC4)cc3)n2)n[nH]1 [Tozasertib] (partner 0.1 µM)
How it was run: as §1

LCLC-97TM1
relative viability (KN-93 + AZD7762; first compound 0.08 µM): 0.289
relative viability (KN-93 + AZD7762; first compound 0.253 µM): 0.279
relative viability (KN-93 + AZD7762; first compound 2.53 µM): 0.198
relative viability (KN-93 + AZD7762; first compound 8 µM): 0.224
relative viability (KN-93 + Dasatinib; first compound 0.08 µM): 0.753
relative viability (KN-93 + Dasatinib; first compound 0.253 µM): 0.955
relative viability (KN-93 + Dasatinib; first compound 2.53 µM): 0.814
relative viability (KN-93 + Dasatinib; first compound 8 µM): 0.63
relative viability (KN-93 + Trametinib; first compound 0.08 µM): 0.185
relative viability (KN-93 + Trametinib; first compound 0.253 µM): 0.181
relative viability (KN-93 + Trametinib; first compound 2.53 µM): 0.163
relative viability (KN-93 + Trametinib; first compound 8 µM): 0.153
relative viability (KN-93 + Palbociclib; first compound 0.08 µM): 0.293
relative viability (KN-93 + Palbociclib; first compound 0.253 µM): 0.227
relative viability (KN-93 + Palbociclib; first compound 2.53 µM): 0.207
relative viability (KN-93 + Palbociclib; first compound 8 µM): 0.158
relative viability (KN-93 + Tozasertib; first compound 0.08 µM): 0.254
relative viability (KN-93 + Tozasertib; first compound 0.253 µM): 0.229
relative viability (KN-93 + Tozasertib; first compound 2.53 µM): 0.226
relative viability (KN-93 + Tozasertib; first compound 8 µM): 0.194

SK-MES-1
relative viability (KN-93 + Dasatinib; first compound 0.08 µM): 0.42
relative viability (KN-93 + Dasatinib; first compound 0.253 µM): 0.318
relative viability (KN-93 + Dasatinib; first compound 2.53 µM): 0.367
relative viability (KN-93 + Dasatinib; first compound 8 µM): 0.261
relative viability (KN-93 + Trametinib; first compound 0.08 µM): 0.561
relative viability (KN-93 + Trametinib; first compound 0.253 µM): 0.493
relative viability (KN-93 + Trametinib; first compound 2.53 µM): 0.514
relative viability (KN-93 + Trametinib; first compound 8 µM): 0.407
relative viability (KN-93 + Palbociclib; first compound 0.08 µM): 0.367
relative viability (KN-93 + Palbociclib; first compound 0.253 µM): 0.301
relative viability (KN-93 + Palbociclib; first compound 2.53 µM): 0.354
relative viability (KN-93 + Palbociclib; first compound 8 µM): 0.284
relative viability (KN-93 + Tozasertib; first compound 0.08 µM): 0.919
relative viability (KN-93 + Tozasertib; first compound 0.253 µM): 0.98
relative viability (KN-93 + Tozasertib; first compound 2.53 µM): 1.04
relative viability (KN-93 + Tozasertib; first compound 8 µM): 0.4

NCI-H358
relative viability (KN-93 + AZD7762; first compound 0.08 µM): 0.474
relative viability (KN-93 + AZD7762; first compound 0.253 µM): 0.473
relative viability (KN-93 + AZD7762; first compound 2.53 µM): 0.465
relative viability (KN-93 + AZD7762; first compound 8 µM): 0.424
relative viability (KN-93 + Dasatinib; first compound 0.08 µM): 0.182
relative viability (KN-93 + Dasatinib; first compound 0.253 µM): 0.168
relative viability (KN-93 + Dasatinib; first compound 2.53 µM): 0.15
relative viability (KN-93 + Dasatinib; first compound 8 µM): 0.148
relative viability (KN-93 + Trametinib; first compound 0.08 µM): 0.147
relative viability (KN-93 + Trametinib; first compound 0.253 µM): 0.133
relative viability (KN-93 + Trametinib; first compound 2.53 µM): 0.132
relative viability (KN-93 + Trametinib; first compound 8 µM): 0.112
relative viability (KN-93 + Palbociclib; first compound 0.08 µM): 0.14
relative viability (KN-93 + Palbociclib; first compound 0.253 µM): 0.136
relative viability (KN-93 + Palbociclib; first compound 2.53 µM): 0.138
relative viability (KN-93 + Palbociclib; first compound 8 µM): 0.131
relative viability (KN-93 + Tozasertib; first compound 0.08 µM): 0.1
relative viability (KN-93 + Tozasertib; first compound 0.253 µM): 0.105
relative viability (KN-93 + Tozasertib; first compound 2.53 µM): 0.089
relative viability (KN-93 + Tozasertib; first compound 8 µM): 0.103

A-427
relative viability (KN-93 + AZD7762; first compound 0.08 µM): 0.657
relative viability (KN-93 + AZD7762; first compound 0.253 µM): 0.771
relative viability (KN-93 + AZD7762; first compound 2.53 µM): 1.03
relative viability (KN-93 + AZD7762; first compound 8 µM): 0.548
relative viability (KN-93 + Dasatinib; first compound 0.08 µM): 0.71
relative viability (KN-93 + Dasatinib; first compound 0.253 µM): 0.668
relative viability (KN-93 + Dasatinib; first compound 2.53 µM): 0.672
relative viability (KN-93 + Dasatinib; first compound 8 µM): 0.324
relative viability (KN-93 + Trametinib; first compound 0.08 µM): 0.799
relative viability (KN-93 + Trametinib; first compound 0.253 µM): 0.746
relative viability (KN-93 + Trametinib; first compound 2.53 µM): 0.772
relative viability (KN-93 + Trametinib; first compound 8 µM): 0.438
relative viability (KN-93 + Palbociclib; first compound 0.08 µM): 0.555
relative viability (KN-93 + Palbociclib; first compound 0.253 µM): 0.533
relative viability (KN-93 + Palbociclib; first compound 2.53 µM): 0.511
relative viability (KN-93 + Palbociclib; first compound 8 µM): 0.41
relative viability (KN-93 + Tozasertib; first compound 0.08 µM): 0.206
relative viability (KN-93 + Tozasertib; first compound 0.253 µM): 0.193
relative viability (KN-93 + Tozasertib; first compound 2.53 µM): 0.172
relative viability (KN-93 + Tozasertib; first compound 8 µM): 0.165

NCI-H1734
relative viability (KN-93 + AZD7762; first compound 0.08 µM): 0.465
relative viability (KN-93 + AZD7762; first compound 0.253 µM): 0.627
relative viability (KN-93 + AZD7762; first compound 2.53 µM): 0.597
relative viability (KN-93 + AZD7762; first compound 8 µM): 0.441
relative viability (KN-93 + Dasatinib; first compound 0.08 µM): 0.478
relative viability (KN-93 + Dasatinib; first compound 0.253 µM): 0.544
relative viability (KN-93 + Dasatinib; first compound 2.53 µM): 0.577
relative viability (KN-93 + Dasatinib; first compound 8 µM): 0.358
relative viability (KN-93 + Trametinib; first compound 0.08 µM): 0.624
relative viability (KN-93 + Trametinib; first compound 0.253 µM): 0.775
relative viability (KN-93 + Trametinib; first compound 2.53 µM): 0.653
relative viability (KN-93 + Trametinib; first compound 8 µM): 0.405
relative viability (KN-93 + Palbociclib; first compound 0.08 µM): 0.345
relative viability (KN-93 + Palbociclib; first compound 0.253 µM): 0.396
relative viability (KN-93 + Palbociclib; first compound 2.53 µM): 0.335
relative viability (KN-93 + Palbociclib; first compound 8 µM): 0.263
relative viability (KN-93 + Tozasertib; first compound 0.08 µM): 0.254
relative viability (KN-93 + Tozasertib; first compound 0.253 µM): 0.27
relative viability (KN-93 + Tozasertib; first compound 2.53 µM): 0.264
relative viability (KN-93 + Tozasertib; first compound 8 µM): 0.215

LXF-289
relative viability (KN-93 + AZD7762; first compound 0.08 µM): 0.813
relative viability (KN-93 + AZD7762; first compound 0.253 µM): 1.15
relative viability (KN-93 + AZD7762; first compound 2.53 µM): 1.18
relative viability (KN-93 + AZD7762; first compound 8 µM): 0.978
relative viability (KN-93 + Dasatinib; first compound 0.08 µM): 0.238
relative viability (KN-93 + Dasatinib; first compound 0.253 µM): 0.197
relative viability (KN-93 + Dasatinib; first compound 2.53 µM): 0.229
relative viability (KN-93 + Dasatinib; first compound 8 µM): 0.141
relative viability (KN-93 + Trametinib; first compound 0.08 µM): 0.661
relative viability (KN-93 + Trametinib; first compound 0.253 µM): 0.69
relative viability (KN-93 + Trametinib; first compound 2.53 µM): 0.666
relative viability (KN-93 + Trametinib; first compound 8 µM): 0.592
relative viability (KN-93 + Palbociclib; first compound 0.08 µM): 0.512
relative viability (KN-93 + Palbociclib; first compound 0.253 µM): 0.672
relative viability (KN-93 + Palbociclib; first compound 2.53 µM): 0.628
relative viability (KN-93 + Palbociclib; first compound 8 µM): 0.552
relative viability (KN-93 + Tozasertib; first compound 0.08 µM): 0.201
relative viability (KN-93 + Tozasertib; first compound 0.253 µM): 0.25
relative viability (KN-93 + Tozasertib; first compound 2.53 µM): 0.215
relative viability (KN-93 + Tozasertib; first compound 8 µM): 0.147

NCI-H1437
relative viability (KN-93 + AZD7762; first compound 0.08 µM): 1.16
relative viability (KN-93 + AZD7762; first compound 0.253 µM): 1.29
relative viability (KN-93 + AZD7762; first compound 2.53 µM): 1.24
relative viability (KN-93 + AZD7762; first compound 8 µM): 0.654
relative viability (KN-93 + Dasatinib; first compound 0.08 µM): 0.457
relative viability (KN-93 + Dasatinib; first compound 0.253 µM): 0.44
relative viability (KN-93 + Dasatinib; first compound 2.53 µM): 0.374
relative viability (KN-93 + Dasatinib; first compound 8 µM): 0.153
relative viability (KN-93 + Trametinib; first compound 0.08 µM): 0.444
relative viability (KN-93 + Trametinib; first compound 0.253 µM): 0.471
relative viability (KN-93 + Trametinib; first compound 2.53 µM): 0.454
relative viability (KN-93 + Trametinib; first compound 8 µM): 0.377
relative viability (KN-93 + Palbociclib; first compound 0.08 µM): 0.325
relative viability (KN-93 + Palbociclib; first compound 0.253 µM): 0.285
relative viability (KN-93 + Palbociclib; first compound 2.53 µM): 0.271
relative viability (KN-93 + Palbociclib; first compound 8 µM): 0.294
relative viability (KN-93 + Tozasertib; first compound 0.08 µM): 0.37
relative viability (KN-93 + Tozasertib; first compound 0.253 µM): 0.433
relative viability (KN-93 + Tozasertib; first compound 2.53 µM): 0.383
relative viability (KN-93 + Tozasertib; first compound 8 µM): 0.264

ABC-1
relative viability (KN-93 + AZD7762; first compound 0.08 µM): 0.924
relative viability (KN-93 + AZD7762; first compound 0.253 µM): 1.05
relative viability (KN-93 + AZD7762; first compound 2.53 µM): 0.869
relative viability (KN-93 + AZD7762; first compound 8 µM): 0.38
relative viability (KN-93 + Dasatinib; first compound 0.08 µM): 0.585
relative viability (KN-93 + Dasatinib; first compound 0.253 µM): 0.476
relative viability (KN-93 + Dasatinib; first compound 2.53 µM): 0.468
relative viability (KN-93 + Dasatinib; first compound 8 µM): 0.203
relative viability (KN-93 + Palbociclib; first compound 0.08 µM): 0.691
relative viability (KN-93 + Palbociclib; first compound 0.253 µM): 0.64
relative viability (KN-93 + Palbociclib; first compound 2.53 µM): 0.571
relative viability (KN-93 + Palbociclib; first compound 8 µM): 0.336
relative viability (KN-93 + Tozasertib; first compound 0.08 µM): 0.158
relative viability (KN-93 + Tozasertib; first compound 0.253 µM): 0.157
relative viability (KN-93 + Tozasertib; first compound 2.53 µM): 0.217
relative viability (KN-93 + Tozasertib; first compound 8 µM): 0.192
